{
  "source": "patent US20240400555A1",
  "about": "(Initial Therapeutics, Inc., priority 2023, published 2024)",
  "tested_on": "MV-4-11 cells",
  "assay": "Cell Viability Assay in MV-4-11 Cells",
  "format": "cell-based",
  "details": "Homo sapiens, MV4-11, 72 h, MV-4-11 cells, 72 h, Cell-Titer Glo; read-out: IC50",
  "in_short": "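Luminescent ATP read-out (CellTiter-Glo) after 72 h compound treatment of MV-4-11 leukaemia cells (7,000 per well, IMDM plus 10% FBS). Values expressed relative to DMSO control and derived by four-parameter non-linear regression.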",
  "data": [
    {"smiles": "O=C(c1ccc(-n2nnc3cccnc32)cc1F)N(c1nccc2sc(-c3nccs3)cc12)[C@@H]1CCCNC1", "note": "[Example 417, 2-fluoro-N-[(3R)-3-piperidyl]-N-(2-thiazol-2-ylthieno[3,2-c]pyridin-4-yl)-4-(triazolo[4,5-b]pyridin-3-yl)benzamide]", "values": [
      {"measurement": "IC50", "result": 390, "unit": "nM"}
    ]},
    {"smiles": "O=C(c1ccc(-n2nnc3cccnc32)cc1F)N(c1nccc2sc(-c3ccn(CCO)n3)cc12)[C@@H]1CCCNC1", "note": "[Example 418, (R)-4-(3H-[1,2,3]triazolo[4,5-b]pyridin-3-yl)-2-fluoro-N-(2-(1-(2-hydroxyethyl)-1H-pyrazol-3-yl)thieno[3,2-c]pyridin-4-yl)-N-(piperidin-3-yl)benzamide]", "values": [
      {"measurement": "IC50", "result": 360, "unit": "nM"}
    ]},
    {"smiles": "CS(=O)(=O)c1cccc(-c2cc3c(N(C(=O)c4ccc(-n5nnc6cccnc65)cc4F)[C@@H]4CCCNC4)nccc3s2)c1", "note": "[Example 419, 2-fluoro-N-[2-(3-methylsulfonylphenyl)thieno[3,2-c]pyridin-4-yl]-N-[(3R)-3-piperidyl]-4-(triazolo[4,5-b]pyridin-3-yl)benzamide]", "values": [
      {"measurement": "IC50", "result": 200, "unit": "nM"}
    ]},
    {"smiles": "Nc1noc2ccc(-c3cc4c(N(C(=O)c5ccc(-n6nnc7cccnc76)cc5F)[C@@H]5CCCNC5)nccc4s3)cc12", "note": "[Example 420, N-[2-(3-amino-1,2-benzoxazol-5-yl)thieno[3,2-c]pyridin-4-yl]-2-fluoro-N-[(3R)-3-piperidyl]-4-(triazolo[4,5-b]pyridin-3-yl)benzamide]", "values": [
      {"measurement": "IC50", "result": 330, "unit": "nM"}
    ]},
    {"smiles": "Cc1cc(-c2cccnc2)cc2ccnc(N(C(=O)c3ccc(-n4nnc5cccnc54)cc3F)[C@@H]3CCCNC3)c12", "note": "[Example 421, (R)-4-(3H-[1,2,3]triazolo[4,5-b]pyridin-3-yl)-2-fluoro-N-(8-methyl-6-(pyridin-3-yl)isoquinolin-1-yl)-N-(piperidin-3-yl)benzamide]", "values": [
      {"measurement": "IC50", "result": 16, "unit": "nM"}
    ]},
    {"smiles": "Cc1cc(-c2cn[nH]c2)cc2ccnc(N(C(=O)c3ccc(-n4nnc5cccnc54)cc3F)[C@@H]3CCCNC3)c12", "note": "[Example 422, (R)-4-(3H-[1,2,3]triazolo[4,5-b]pyridin-3-yl)-2-fluoro-N-(8-methyl-6-(1H-pyrazol-4-yl)isoquinolin-1-yl)-N-(piperidin-3-yl)benzamide]", "values": [
      {"measurement": "IC50", "result": 6.6, "unit": "nM"}
    ]},
    {"smiles": "O=C(c1ccc(-n2nnc3cccnc32)cc1F)N(c1nccc2sc(-c3cccc(CO)c3)cc12)[C@@H]1CCCNC1", "note": "[Example 424, 2-fluoro-N-[2-[3-(hydroxymethyl)phenyl]thieno[3,2-c]pyridin-4-yl]-N-[(3R)-3-piperidyl]-4-(triazolo[4,5-b]pyridin-3-yl)benzamide]", "values": [
      {"measurement": "IC50", "result": 110, "unit": "nM"}
    ]},
    {"smiles": "N#Cc1ccc(-c2cc3c(N(C(=O)c4ccc(-n5nnc6cccnc65)cc4F)[C@@H]4CCCNC4)nccc3s2)s1", "note": "[Example 425, N-[2-(5-cyano-2-thienyl)thieno[3,2-c]pyridin-4-yl]-2-fluoro-N-[(3R)-3-piperidyl]-4-(triazolo[4,5-b]pyridin-3-yl)benzamide]", "values": [
      {"measurement": "IC50", "result": 230, "unit": "nM"}
    ]},
    {"smiles": "O=C(c1ccc(-n2nnc3cccnc32)cc1F)N(c1nccc2sc(-c3ccc(CO)s3)cc12)[C@@H]1CCCNC1", "note": "[Example 426, 2-fluoro-N-[2-[5-(hydroxymethyl)-2-thienyl]thieno [3,2-c]pyridin-4-yl]-N-[(3R)-3-piperidyl]-4-(triazolo [4,5-b]pyridin-3-yl) benzamide]", "values": [
      {"measurement": "IC50", "result": 160, "unit": "nM"}
    ]},
    {"smiles": "O=C(c1ccc(-n2nnc3cccnc32)cc1F)N(c1nccc2sc(-c3csc(CO)n3)cc12)[C@@H]1CCCNC1", "note": "[Example 427, 2-fluoro-N-[2-[2-(hydroxymethyl)thiazol-4-yl]thieno[3,2-c]pyridin-4-yl]-N-[(3R)-3-piperidyl]-4-(triazolo[4,5-b]pyridin-3-yl)benzamide]", "values": [
      {"measurement": "IC50", "result": 210, "unit": "nM"}
    ]},
    {"smiles": "O=C(c1ccc(-n2nnc3cccnc32)cc1F)N(c1nccc2sc(-c3ccccc3O)cc12)[C@@H]1CCCNC1", "note": "[Example 428, 2-fluoro-N-[2-(2-hydroxyphenyl)thieno[3,2-c]pyridin-4-yl]-N-[(3R)-3-piperidyl]-4-(triazolo[4,5-b]pyridin-3-yl)benzamide]", "values": [
      {"measurement": "IC50", "result": 250, "unit": "nM"}
    ]},
    {"smiles": "COC(=O)c1nc(-c2cc3c(N(C(=O)c4ccc(-n5nnc6cccnc65)cc4F)[C@@H]4CCCNC4)nccc3s2)cs1", "note": "[Example 429, methyl 4-[4-[[2-fluoro-4-(triazolo[4,5-b]pyridin-3-yl)benzoyl]-[(3R)-3-piperidyl]amino]thieno[3,2-c]pyridin-2-yl]thiazole-2-carboxylate]", "values": [
      {"measurement": "IC50", "result": 1000, "unit": "nM"}
    ]},
    {"smiles": "Cn1cc(/C=C/c2ccnc(N(C(=O)c3ccc(-n4nnc5cccnc54)cc3F)[C@@H]3CCCNC3)c2)cn1", "note": "[Example 430, 2-fluoro-N-[4-[(E)-2-(1-methylpyrazol-4-yl)vinyl]-2-pyridyl]-N-[(3R)-3-piperidyl]-4-(triazolo[4,5-b]pyridin-3-yl)benzamide]", "values": [
      {"measurement": "IC50", "result": 650, "unit": "nM"}
    ]},
    {"smiles": "O=C(c1ccc(-n2nnc3cccnc32)cc1F)N(c1cc(/C=C/c2cccnc2)ccn1)[C@@H]1CCCNC1", "note": "[Example 431, 2-fluoro-N-[(3R)-3-piperidyl]-N-[4-[(E)-2-(3-pyridyl)vinyl]-2-pyridyl]-4-(triazolo[4,5-b]pyridin-3-yl)benzamide]", "values": [
      {"measurement": "IC50", "result": 2300, "unit": "nM"}
    ]},
    {"smiles": "Cc1cccc2ccnc(N(C(=O)c3ccc(-c4nnc5n4CCCC5)cc3F)[C@@H]3CCCNC3)c12", "note": "[Example 432, (R)-2-fluoro-N-(8-methylisoquinolin-1-yl)-N-(piperidin-3-yl)-4-(5,6,7,8-tetrahydro-[1,2,4]triazolo[4,3-a]pyridin-3-yl)benzamide]", "values": [
      {"measurement": "IC50", "result": 400, "unit": "nM"}
    ]},
    {"smiles": "O=C(c1ccc(Nc2ncccn2)cc1F)N(c1nccc2sc(-c3ccncc3)cc12)[C@@H]1CCCNC1", "note": "[Example 433]", "values": [
      {"measurement": "IC50", "result": 26, "unit": "nM"}
    ]},
    {"smiles": "O=C(c1ccc(-n2nnc3cccnc32)cc1F)N(c1nccc2sc(-c3ccc4ncnn4c3)cc12)[C@@H]1CCCNC1", "note": "[Example 434, (R)-4-(3H-[1,2,3]triazolo[4,5-b]pyridin-3-yl)-N-(2-([1,2,4]triazolo[1,5-a]pyridin-6-yl)thieno[3,2-c]pyridin-4-yl)-2-fluoro-N-(piperidin-3-yl)benzamide]", "values": [
      {"measurement": "IC50", "result": 91, "unit": "nM"}
    ]},
    {"smiles": "O=C(c1ccc(-n2nnc3cccnc32)cc1F)N(c1nccc2sc(-c3cnn(-c4ccccn4)c3)cc12)[C@@H]1CCCNC1", "note": "[Example 435, 2-fluoro-N-[(3R)-3-piperidyl]-N-[2-[1-(2-pyridyl)pyrazol-4-yl]thieno[3,2-c]pyridin-4-yl]-4-(triazolo[4,5-b]pyridin-3-yl)benzamide]", "values": [
      {"measurement": "IC50", "result": 300, "unit": "nM"}
    ]},
    {"smiles": "CCn1cc(-c2cc3c(N(C(=O)c4ccc(-n5nnc6cccnc65)cc4F)[C@@H]4CCCNC4)nccc3s2)cn1", "note": "[Example 436, N-[2-(1-ethylpyrazol-4-yl)thieno[3,2-c]pyridin-4-yl]-2-fluoro-N-[(3R)-3-piperidyl]-4-(triazolo[4,5-b]pyridin-3-yl)benzamide]", "values": [
      {"measurement": "IC50", "result": 270, "unit": "nM"}
    ]},
    {"smiles": "CC(C)n1cc(-c2cc3c(N(C(=O)c4ccc(-n5nnc6cccnc65)cc4F)[C@@H]4CCCNC4)nccc3s2)cn1", "note": "[Example 437, (R)-4-(3H-[1,2,3]triazolo[4,5-b]pyridin-3-yl)-2-fluoro-N-(2-(1-isopropyl-1H-pyrazol-4-yl)thieno[3,2-c]pyridin-4-yl)-N-(piperidin-3-yl)benzamide]", "values": [
      {"measurement": "IC50", "result": 380, "unit": "nM"}
    ]},
    {"smiles": "Cn1ccc(-c2cc3c(N(C(=O)c4ccc(-n5nnc6cccnc65)cc4F)[C@@H]4CCCNC4)nccc3s2)n1", "note": "[Example 438, 2-fluoro-N-[2-(1-methylpyrazol-3-yl)thieno[3,2-c]pyridin-4-yl]-N-[(3R)-3-piperidyl]-4-(triazolo[4,5-b]pyridin-3-yl)benzamide]", "values": [
      {"measurement": "IC50", "result": 220, "unit": "nM"}
    ]},
    {"smiles": "CC(C)n1nccc1-c1ccc2c(N(C(=O)c3ccc(-n4nnc5cccnc54)cc3F)[C@@H]3CCCNC3)nccc2c1", "note": "[Example 439, (R)-4-(3H-[1,2,3]triazolo[4,5-b]pyridin-3-yl)-2-fluoro-N-(6-(1-isopropyl-1H-pyrazol-5-yl)isoquinolin-1-yl)-N-(piperidin-3-yl)benzamide]", "values": [
      {"measurement": "IC50", "result": 1200, "unit": "nM"}
    ]},
    {"smiles": "O=C(c1ccc(-n2nnc3cccnc32)cc1F)N(c1nccc2cc(-c3cc[nH]c(=O)c3)ccc12)[C@@H]1CCCNC1", "note": "[Example 440, (R)-4-(3H-[1,2,3]triazolo[4,5-b]pyridin-3-yl)-2-fluoro-N-(6-(2-oxo-1,2-dihydropyridin-4-yl)isoquinolin-1-yl)-N-(piperidin-3-yl)benzamide]", "values": [
      {"measurement": "IC50", "result": 290, "unit": "nM"}
    ]},
    {"smiles": "Cc1cccc2ccnc(N(C(=O)c3ccc(-c4cn(C)nn4)cc3F)[C@H]3CNCC[C@@H]3C)c12", "note": "[Example 441, 2-fluoro-N-(8-methyl-1-isoquinolyl)-N-[(3R, 4S)-4-methyl-3-piperidyl]-4-(1-methyltriazol-4-yl) benzamide]", "values": [
      {"measurement": "IC50", "result": 120, "unit": "nM"}
    ]},
    {"smiles": "NC(=O)/C=C/c1cc2c(N(C(=O)c3ccc(-n4nnc5cccnc54)cc3F)[C@@H]3CCCNC3)nccc2s1", "note": "[Example 442, N-[2-[(E)-3-amino-3-oxo-prop-1-enyl]thieno[3,2-c]pyridin-4-yl]-2-fluoro-N-[(3R)-3-piperidyl]-4-(triazolo[4,5-b]pyridin-3-yl)benzamide]", "values": [
      {"measurement": "IC50", "result": 1000, "unit": "nM"}
    ]},
    {"smiles": "Cc1ncc(-c2cc3c(N(C(=O)c4ccc(-n5nnc6cccnc65)cc4F)[C@@H]4CCCNC4)nccc3s2)s1", "note": "[Example 443, 2-fluoro-N-[2-(2-methylthiazol-5-yl)thieno[3,2-c]pyridin-4-yl]-N-[(3R)-3-piperidyl]-4-(triazolo[4,5-b]pyridin-3-yl)benzamide]", "values": [
      {"measurement": "IC50", "result": 300, "unit": "nM"}
    ]},
    {"smiles": "Cc1cc(Cl)cc2ccnc(N(C(=O)c3ccc(-c4cn(C)nn4)cc3F)[C@@H]3CCCNC3)c12", "note": "[Example 444, N-(6-chloro-8-methyl-1-isoquinolyl)-2-fluoro-4-(1-methyltriazol-4-yl)-N-[(3R)-3-piperidyl] benzamide]", "values": [
      {"measurement": "IC50", "result": 6.9, "unit": "nM"}
    ]},
    {"smiles": "Cn1cc(-c2ccc3c(N(C(=O)c4ccc(-c5cn(C)nn5)cc4F)[C@@H]4CCCNC4)nccc3c2)cn1", "note": "[Example 445, (R)-2-fluoro-4-(1-methyl-1H-1,2,3-triazol-4-yl)-N-(6-(1-methyl-1H-pyrazol-4-yl)isoquinolin-1-yl)-N-(piperidin-3-yl)benzamide]", "values": [
      {"measurement": "IC50", "result": 290, "unit": "nM"}
    ]},
    {"smiles": "NS(=O)(=O)c1cccc(-c2cc3c(N(C(=O)c4ccc(-n5nnc6cccnc65)cc4F)[C@@H]4CCCNC4)nccc3s2)c1", "note": "[Example 446, 2-fluoro-N-[(3R)-3-piperidyl]-N-[2-(3-sulfamoylphenyl)thieno[3,2-c]pyridin-4-yl]-4-(triazolo[4,5-b]pyridin-3-yl)benzamide]", "values": [
      {"measurement": "IC50", "result": 1900, "unit": "nM"}
    ]}
  ]
}
